The source made the active and inactive calls. The calls are words filed in the database; no cut-off is given here.

For this test, the target named is Sodium-dependent dopamine transporter (Homo sapiens, UniProt Q01959). The test can be described thus: Inhibition of dopamine uptake at human dopamine transporter.
Turning to `CNC[C@]1(O)Cc2ccccc2[C@@H]1Oc1ccc(F)cc1C`, the outcome was inactive. Turning to `Cc1ccccc1O[C@H]1c2ccccc2C[C@@]1(O)CN`, the outcome was inactive. For `CNC[C@]1(O)Cc2ccccc2[C@@H]1Oc1cccc(O)c1C` the value was “inactive”; for `CNC[C@@H]1Cc2ccccc2[C@@H]1Oc1ccccc1C`, “inactive”. For `CNC[C@]1(O)Cc2ccccc2[C@@H]1Oc1ccccc1SC` the value was “inactive”. The result for `CNC[C@]1(O)Cc2ccccc2[C@@H]1Oc1ccccc1-c1cccc2ccccc12` reads “inactive”; that for `CNC[C@]1(O)Cc2ccccc2[C@@H]1Oc1ccccc1C`, “inactive”; that for `CNC[C@]1(OC)Cc2ccccc2[C@@H]1Oc1ccccc1C`, “inactive”. `CNC[C@]1(O)Cc2ccccc2[C@@H]1Oc1ccccc1Cl`: the result was inactive. For `CNC[C@]1(O)Cc2ccccc2[C@@H]1Oc1ccccc1OC` the value was “inactive”; for `CNC[C@]1(O)Cc2ccccc2[C@@H]1Oc1ccc(O)cc1C`, “inactive”; for `CNC[C@]1(O)Cc2ccccc2[C@@H]1Oc1c(C)cccc1F`, “inactive”. For `CNCC1(O)Cc2ccccc2C1Sc1ccccc1C` (racemic) the value was “inactive”; for `CNCC1(O)Cc2ccccc2C1Oc1ccccc1C` (racemic), “inactive”; for `CCNCC1(O)Cc2ccccc2C1Oc1ccccc1C` (racemic), “inactive”. The result for `CNC[C@]1(O)Cc2ccccc2[C@@H]1Oc1ccc(C)cc1C` reads “inactive”; that for `CNC[C@@]1(O)Cc2ccccc2[C@H]1Oc1ccccc1C`, “inactive”; that for `CNC[C@]1(O)Cc2ccccc2[C@@H]1Oc1ccccc1F`, “inactive”. In the case of `CNC[C@]1(O)Cc2ccccc2[C@@H]1Oc1ccccc1CO`, the result was inactive. With `CNC[C@]1(O)Cc2ccccc2[C@@H]1Oc1cc(F)ccc1C`, the result was inactive.

For the molecule `Cc1ccccc1OC1c2ccccc2CC1(O)CN` (racemic), the result was inactive. For `Cc1ccccc1OC1c2ccccc2CC1(O)CNCCO` (racemic) the value was “inactive”; for `CNCC1(O)Cc2ccccc2C1Cc1ccccc1C` (racemic), “inactive”. For `CNC[C@]1(O)Cc2ccccc2[C@@H]1Oc1cccc(F)c1C` the value was “inactive”. The result for `CNC[C@]1(O)Cc2ccccc2[C@@H]1Oc1cccc(C)c1C` reads “inactive”; that for `CCc1ccccc1O[C@H]1c2ccccc2C[C@@]1(O)CNC`, “inactive”.

These data come from ChEMBL document CHEMBL1152169, “Synthesis and structure-activity relationships of selective norepinephrine reuptake inhibitors (sNRI) with improved pharmaceutical characteristics” (Bioorg Med Chem Lett, 2008).
